Key:
Experiment in all cases: relative viability (nuclei count vs DMSO), 5 days (fraction); higher = more cells survive
Halofuginone + Olaparib = compound: O=C(C[C@H]1NCCC[C@@H]1O)Cn1cnc2cc(Br)c(Cl)cc2c1=O (racemic) [Halofuginone] + O=C(c1cc(Cc2n[nH]c(=O)c3ccccc23)ccc1F)N1CCN(C(=O)C2CC2)CC1 [Olaparib] (partner 8 µM)
Procedure, shortened: (§1)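 The day after seeding in 1536-well plates, lung cancer cell lines were treated by pin tool with a single drug, or with a fixed anchor-drug dose together with five library-drug doses (not always all listed) in √10 steps. After 5 days, a combined fix-and-stain solution (final 0.05% Triton X-100, 1% formaldehyde, 1 ug/ml Hoechst) was added. Nuclei counted on 4× images gave relative viability as treated counts over vehicle counts, reported as the median of duplicate plates.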

Cediranib + Pictilisib = compound: COc1cc2c(Oc3ccc4[nH]c(C)cc4c3F)ncnc2cc1OCCCN1CCCC1 [Cediranib] + CS(=O)(=O)N1CCN(Cc2cc3nc(-c4cccc5[nH]ncc45)nc(N4CCOCC4)c3s2)CC1 [Pictilisib] (partner 1 µM)
Procedure, shortened: as §1

[1] = compound: O=C(C[C@H]1NCCC[C@@H]1O)Cn1cnc2cc(Br)c(Cl)cc2c1=O (racemic) [Halofuginone] + C[C@]1(O)C[C@@H](c2nc(-c3ccc4ccc(-c5ccccc5)nc4c3)c3c(N)nccn32)C1 [Linsitinib] (partner 1 µM)
Procedure, shortened: as §1

Cediranib + Crizotinib = compound: COc1cc2c(Oc3ccc4[nH]c(C)cc4c3F)ncnc2cc1OCCCN1CCCC1 [Cediranib] + C[C@@H](Oc1cc(-c2cnn(C3CCNCC3)c2)cnc1N)c1c(Cl)ccc(F)c1Cl [Crizotinib] (partner 1 µM)
Procedure, shortened: as §1

| Cell Line | relative viability (Halofuginone + Olaparib; first compound 0.001 µM) | relative viability (Halofuginone + Olaparib; first compound 0.003162 µM) | relative viability (Halofuginone + Olaparib; first compound 0.01 µM) | relative viability (Halofuginone + Olaparib; first compound 0.03162 µM) | relative viability (Halofuginone + Olaparib; first compound 0.1 µM) | relative viability (Cediranib + Pictilisib; first compound 0.04 µM) | relative viability (Cediranib + Pictilisib; first compound 0.1265 µM) | relative viability (Cediranib + Pictilisib; first compound 0.4 µM) | relative viability (Cediranib + Pictilisib; first compound 1.265 µM) | relative viability (Cediranib + Pictilisib; first compound 4 µM) | relative viability ([1]; first compound 0.001 µM) | relative viability ([1]; first compound 0.003162 µM) | relative viability ([1]; first compound 0.01 µM) | relative viability ([1]; first compound 0.03162 µM) | relative viability ([1]; first compound 0.1 µM) | relative viability (Cediranib + Crizotinib; first compound 0.04 µM) | relative viability (Cediranib + Crizotinib; first compound 0.1265 µM) | relative viability (Cediranib + Crizotinib; first compound 0.4 µM) | relative viability (Cediranib + Crizotinib; first compound 1.265 µM) | relative viability (Cediranib + Crizotinib; first compound 4 µM) |
| --- | --- | --- | --- | --- | --- | --- | --- | --- | --- | --- | --- | --- | --- | --- | --- | --- | --- | --- | --- | --- |
| HCC-78 | 1.01 | 0.74 | 0.849 | 0.858 | 0.532 | 0.24 | 0.204 | 0.21 | 0.174 | 0.187 | 0.479 | 0.579 | 0.484 | 0.706 | 0.312 | 0.362 | 0.417 | 0.301 | 0.376 | 0.284 |
| LCLC-97TM1 | 0.445 | 0.314 | 0.392 | 0.387 | 0.233 | 0.174 | – | 0.168 | 0.122 | 0.248 | 0.209 | 0.189 | 0.187 | 0.179 | 0.163 | 0.272 | – | 0.352 | 0.47 | 0.363 |
| NCI-H838 | 0.817 | 0.784 | 0.734 | 0.527 | 0.107 | 0.542 | 0.46 | 0.395 | 0.275 | 0.558 | 1.03 | 0.857 | 0.94 | 0.549 | 0.127 | 0.798 | 0.898 | 0.817 | 0.811 | 0.748 |
| NCI-H520 | 0.324 | 0.291 | 0.303 | 0.378 | 0.187 | 0.312 | – | 0.246 | 0.221 | 0.22 | 0.997 | 0.85 | 0.994 | 0.667 | 0.422 | 0.93 | – | 0.665 | 0.801 | 0.598 |
| NCI-H2347 | 0.537 | 0.583 | 0.565 | 0.518 | 0.43 | 0.592 | – | 0.742 | 0.516 | 0.444 | 1.06 | 1.05 | 0.902 | 1.04 | 0.777 | 0.672 | 0.698 | 0.794 | 0.865 | 0.675 |
| NCI-H441 | 0.591 | 0.537 | 0.56 | 0.455 | 0.238 | 0.492 | 0.474 | 0.45 | 0.378 | 0.426 | 0.6 | 0.651 | 0.525 | 0.561 | 0.353 | 0.78 | 0.76 | 1.02 | 0.504 | 0.735 |
| NCI-H1944 | 0.416 | 0.407 | 0.395 | 0.405 | 0.402 | 0.33 | 0.494 | 0.328 | 0.297 | 0.328 | 1.2 | 1.1 | 1.22 | 1.13 | 0.936 | 1.14 | 1.03 | 0.994 | 1.05 | 1.06 |
| NCI-H2405 | 0.934 | 0.864 | 0.826 | 0.795 | 0.66 | 0.457 | 0.708 | 0.416 | 0.305 | 0.415 | 0.991 | 1.05 | 1.01 | 0.906 | 0.69 | 0.849 | 0.82 | 0.792 | 0.823 | 0.825 |
| HCC-15 | 0.765 | 0.82 | 0.727 | 0.678 | 0.665 | 0.602 | – | 0.699 | 0.686 | 0.987 | 0.914 | 0.908 | 0.839 | 0.92 | 0.688 | 0.93 | – | 0.787 | 0.816 | 0.828 |

— the supplement of paper PMC10307832
